Laboratory results as given in PMC7822874, “Chemoprotective antimalarials identified through quantitative high-throughput screening of Plasmodium blood and liver stage parasites” (Scientific Reports, 2021).
Where two headings read alike, the source gives them in different places.

Key:
[1] = test system: P. berghei-ANKA-GFP-LucCON liver stage parasites in HepG2-A16-CD81EGFP cells; assay: P. berghei liver stage Pb-Luc assay, Method 1 (UCSD, 1536-well); on Pb-Luc signal, 1 uM, repeat 1: reference of the scale not given here; on Pb-Luc signal, 1 uM, repeat 2: reference of the scale not given here; on Pb-Luc signal, 1 uM, repeat 3: reference of the scale not given here; on Pb-Luc signal, 3 uM, repeat 1: reference of the scale not given here; on Pb-Luc signal, 3 uM, repeat 2: reference of the scale not given here; on Pb-Luc signal, 3 uM, repeat 3: reference of the scale not given here; assay type: cell-based, Plasmodium berghei; details: for Max Resp (signal direction of the dose response) / AC50 / Log AC50 (M): Method 1; for Max Resp (signal direction of the dose response): Decrease = decreasing P. berghei viability with dose, Increase = increasing signal, Inactive = no dose response; for activity at 1 µM / activity at 3 µM: 48 h, average of 2 wells, 1536-well plate; for activity at 1 µM: nominal 1 uM (10 mM stock), […] for 15 mM, 1.2 uM for 12 mM, 2 uM for 20 mM stock; for activity at 3 µM: nominal 3 uM (10 mM stock), 4.5 uM for 15 mM, 3.6 uM for 12 mM, 6 uM for 20 mM stock
[2] = test system: luciferase-expressing P. berghei liver stage parasites in HepG2 cells; assay: Inhibition of liver-stage development assay (ILSDA), Method 2 (WRAIR, 96-well); assay type: cell-based, Plasmodium berghei; details: for AC50: Plasmodium berghei; for Max Resp (signal direction of the dose response): Method 2, Decrease = decreasing P. berghei viability with dose, Increase = increasing signal, Inactive = no dose response
[3] = test system: Plasmodium falciparum Dd2 asexual blood stage parasites; assay: microbe, parasite or virus in culture; parameters: species or system Plasmodium falciparum Dd2 in human erythrocytes; single determination (one 11-point concentration-response curve); details: Plasmodium falciparum, DD2, Erythrocyte, 72 h; read-out: AC50
in vitro = details: human
[4] = Plasmodium berghei, repeat 1, read-out: Pb-Luc signal, 1 uM, repeat 1
[5] = Plasmodium berghei, repeat 2, read-out: Pb-Luc signal, 1 uM, repeat 2
[6] = Plasmodium berghei, repeat 3, read-out: Pb-Luc signal, 1 uM, repeat 3
[7] = Plasmodium berghei, repeat 1, read-out: Pb-Luc signal, 3 uM, repeat 1
[8] = Plasmodium berghei, repeat 2, read-out: Pb-Luc signal, 3 uM, repeat 2
[9] = Plasmodium berghei, repeat 3, read-out: Pb-Luc signal, 3 uM, repeat 3
[10] = P. berghei liver stage, Method 2, dose response
[11] = Plasmodium berghei, Hill fit, 50% of maximum activity response, read-out: AC50
[12] = Plasmodium berghei, log10 of molar AC50 from Hill fit, read-out: Log AC50 (converted)
[13] = nominal 1 uM (10 mM stock), […] for 15 mM, 1.2 uM for 12 mM, 2 uM for 20 mM stock, average of 2 wells, repeat 2
[14] = nominal 3 uM (10 mM stock), 4.5 uM for 15 mM, 3.6 uM for 12 mM, 6 uM for 20 mM stock, average of 2 wells, repeat 2
[15] = HepG2-A16-CD81EGFP cells, uninfected
[16] = Hill fit, 50% of maximum activity response, read-out: AC50
[17] = log10 of molar AC50 from Hill fit
[18] = HepG2, Method 2, Hill fit, 50% of maximum activity response, read-out: AC50
[19] = HepG2, Method 2, log10 of molar AC50 from Hill fit, read-out: Log AC50 (converted)

SMILES	Max Resp (signal direction of the dose response) [1]	activity at 1 µM [1, 4] [%]	activity at 1 µM [1, 5] [%]	activity at 1 µM [1, 6] [%]	activity at 3 µM [1, 7] [%]	activity at 3 µM [1, 8] [%]	activity at 3 µM [1, 9] [%]	Activity direction (Decrease / Inactive) [2, 10]	AC50 [3] [nM]	viability at 48 h, 3 µM (in vitro) [%]	AC50 [1, 11] [nM]	AC50 [1, 12] [nM]	HepG2 viability signal, 1 uM, repeat 2 (HepG2-A16-CD81EGFP cells; [13]) [%]	HepG2 viability signal, 3 uM, repeat 2 (HepG2-A16-CD81EGFP cells; [14]) [%]	viability at 48 h, 1 µM (in vitro; [15]) [%]	viability at 48 h, 3 µM (in vitro; [15]) [%]	Max Resp (signal direction of the dose response) [2]	AC50 [2, 18] [nM]	AC50 [2, 19] [nM]	other results
COc1cc2c(cc1Oc1cccc(N(C)C)c1)NC(=O)C21CCN(c2cnccn2)CC1 [NCGC00416778-01]	Inactive	86.6	95.1	107	35	40	53.9	Decrease	1500	89.7	–	–	–	–	–	–	–	–	–	AC50 ([2]; HepG2, P. berghei liver stage, Method 2, dose response, read-out: AC50): 1000 nM; AC50 ([2]; HepG2, P. berghei liver stage, Method 2, dose response, read-out: Log AC50 (converted)): 1000 nM; HepG2 viability signal, 1 uM, repeat 2 (HepG2-A16-CD81EGFP cells; human, 48 h, 1 µM): 94.98%; HepG2 viability signal, 3 uM, repeat 2 (HepG2-A16-CD81EGFP cells; human, 48 h, 3 µM): 87.34%; viability at 48 h, 1 µM (in vitro): 101%
O=C(Nc1ccc2c(N3CCOCC3)ncnc2c1)c1cccc(Br)c1 [NCGC00425561-01]	–	70.5	72.5	53.9	30.4	40.5	12.4	–	4220	–	1410	1410	93.24	58.93	97.9	39.6	–	–	–	Activity direction (Decrease / Inactive) [2]: Decrease; AC50 ([2]; HepG2): 31600 nM; AC50 ([2]; HepG2, read-out: Log AC50 (converted)): 31600 nM
CCC(CC)c1cc([C@H]2CN3CC[C@H]2C[C@@H]3CNC(=O)COc2ccccc2)nc(-c2ccncc2)n1 [NCGC00420983-01]	Decrease	55.4	47	38	33.3	38.2	41	Inactive	1500	101	–	–	97.05	–	102	101	–	–	–	–
COc1ccc(-n2nc(C)c([C@@H]3C=C[C@@H](NCc4cccc(Cl)c4)C3)c2C)cc1 [NCGC00391691-01]	Decrease	41.3	40.5	39.6	11.5	13.5	12.4	–	1370	–	1580	1580	103.31	96.15	104	102	Decrease	1260	1260	AC50 [1, 16]: 2000 nM; Log AC50 (M) [1, 17]: -5.700 M
CCC(CC)c1cc([C@H]2CN3CC[C@H]2C[C@@H]3CN[S+](=O)([O-])c2cccs2)nc(-c2ccncc2)n1 [NCGC00396883-01]	Decrease	64	69	109	37.8	32.5	35.3	–	2370	102	501	501	–	–	–	–	Decrease	631	631	AC50 [1, 16]: 708 nM; Log AC50 (M) [1, 17]: -6.150 M; HepG2 viability signal, 1 uM, repeat 2 (HepG2-A16-CD81EGFP cells; human, 48 h, 1 µM): 98.83%; HepG2 viability signal, 3 uM, repeat 2 (HepG2-A16-CD81EGFP cells; human, 48 h, 3 µM): 99.98%; viability at 48 h, 1 µM (in vitro): 99.7%
COc1ccc(-c2cc(C(F)(F)F)nc(SCCC(=O)Nc3cc(C)ccc3O)n2)cc1 [NCGC00101472-01]	–	38.3	70	108	2.83	48.6	51.1	–	1880	–	2000	2000	103.33	103.42	–	–	Inactive	–	–	HepG2 viability signal, 1 uM, repeat 1 (HepG2-A16-CD81EGFP cells; nominal 1 uM (10 mM stock), […] for 15 mM, 1.2 uM for 12 mM, 2 uM for 20 mM stock, average of 2 wells, repeat 1): 98.35%
COc1ccc(-c2ccc3ncc(Nc4ccc(C(N)=O)cc4)n3n2)cc1OC [NCGC00412552-01]	Inactive	38.8	64.3	74.5	2.42	48.9	27.1	–	2430	–	–	–	102.54	100.89	100	105	Inactive	–	–	–
COc1ccc(Nc2cnc3ccc(-c4ccc(OC)c(OC)c4)nn23)cc1 [NCGC00412624-01]	Decrease	3.08	5.39	3.47	-0.46	-0.86	-0.14	Inactive	1720	–	1410	1410	100.79	112.23	101	109	–	–	–	–
CCc1ccc(C2Sc3ccccc3N=C3C2=C(O)c2ccccc23)cc1 (centres unmarked) [NCGC00108831-01]	Decrease	12.1	58.2	12.7	2.42	50.9	62.2	–	–	–	–	–	104.01	104.74	103	105	Decrease	398	398	–
